# Test system: wheat septoria tritici blotch fungus (Mycosphaerella graminicola)
# Assay: Control test against wheat septoria tritici blotch fungus, titer plate growth (Test Example 1)
# Assay type: cell-based
# Conditions: 150 ppm in DMSO, 1 μl in 150 μl medium, 96-well plate, 18° C., 4 days
compound,measurement,value
CCOC(=O)C(=O)c1ccccc1COc1ccc(-c2cc(Cl)n(C)n2)cc1C [present compound 1],"control activity (Equation 1, degree of growth by absorbance at 550 nm)",≥ 70%

# From patent publication US9907307B2, “Aromatic compound and uses thereof” (SUMITOMO CHEMICAL COMPANY, LIMITED, priority 2014, dated 2018)
